From PMC10873978, “Novel tetrahydroisoquinolines as DHFR and CDK2 inhibitors: synthesis, characterization, anticancer activity and antioxidant properties” (BMC Chemistry, 2024) come the findings set out here.

Structures are written as SMILES. Several values for one entry are separate records, joined by “and”; a condition that tells them apart may be missing. Equal entries are not always repeated. Where two headings read alike, the source gives them in different places.

For one data set, the system named is A549 cell line. Description: In vitro cytotoxic activity, MTT method, A549. The conditions noted are these: Homo sapiens, read-out: IC50 ± SD. In outline: (§1)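 Monolayers formed over 24 h at 37 °C from 10^5 cells/mL were treated with graded compound concentrations, doxorubicin serving as reference. Viability came from MTT reduction over 1–5 h (5% CO2), absorbance at 560 nm with 620 nm background subtraction.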

The test system of a further data set is MCF7 cell line. Description: In vitro cytotoxic activity, MTT method, MCF7. The data set is classed as cell-based, human. The essentials:
as §1
For orientation: Tetrazolium assays rely on reduction of a dye to a coloured formazan, in cell work by metabolically active cells.

The test system of another data set is WI-38 cell line. Description: Cytotoxicity on normal cell line WI-38. The data set is classed as cell-based, human. The conditions noted are these: for IC50: read-out: Toxicity on WI38 IC50 ± SD; for % viability: human.
Data set [1] in a line: Cytotoxicity on normal cell line WI-38. The data set is classed as cell-based, human. The settings on record: human, % viability.
The next data set concerns the target T1, IKB kinase B (Homo sapiens, UniProt O14920).
T1 sequence (O14920 1-756): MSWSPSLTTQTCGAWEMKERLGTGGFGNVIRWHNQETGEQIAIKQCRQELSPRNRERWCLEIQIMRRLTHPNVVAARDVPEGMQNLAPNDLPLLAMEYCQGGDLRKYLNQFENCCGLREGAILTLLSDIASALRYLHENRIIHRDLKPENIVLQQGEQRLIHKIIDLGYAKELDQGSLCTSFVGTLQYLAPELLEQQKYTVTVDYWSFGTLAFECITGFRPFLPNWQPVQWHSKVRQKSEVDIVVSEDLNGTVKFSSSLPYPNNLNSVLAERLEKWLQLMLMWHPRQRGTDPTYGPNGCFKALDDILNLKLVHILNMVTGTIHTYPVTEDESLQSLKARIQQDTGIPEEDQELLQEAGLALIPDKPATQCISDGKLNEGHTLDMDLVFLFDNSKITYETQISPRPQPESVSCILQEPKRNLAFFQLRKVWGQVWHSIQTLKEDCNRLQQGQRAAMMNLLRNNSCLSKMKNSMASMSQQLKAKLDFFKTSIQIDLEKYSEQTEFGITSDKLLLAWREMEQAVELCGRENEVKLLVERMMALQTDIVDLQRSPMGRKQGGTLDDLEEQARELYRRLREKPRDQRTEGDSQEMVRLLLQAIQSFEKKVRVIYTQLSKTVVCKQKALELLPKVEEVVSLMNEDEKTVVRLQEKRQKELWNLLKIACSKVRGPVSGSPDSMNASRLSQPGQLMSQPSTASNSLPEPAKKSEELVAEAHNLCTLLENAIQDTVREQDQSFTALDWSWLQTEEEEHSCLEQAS
Description: IKB kinase inhibition. The data set is classed as biochemical. The settings on record: IκB.

For `COc1cccc2c1C(=O)c1c(O)c3c(c(O)c1C2=O)C[C@@](O)(C(=O)CO)C[C@@H]3O[C@H]1C[C@H](N)[C@H](O)[C@H](C)O1` [Doxorubicin, reference compound], the IC50 – broadly, the concentration that inhibits the measured activity by half – in the data set with A549 cell line turned out to be 0.218 ± 0.005 µM; in the data set on MCF7 cell line (Homo sapiens, MCF7, MCF7 cell line, MTT), 0.053 ± 0.002 µM; in the data set with WI-38 cell line (Homo sapiens, WI-38, normal human fetal lung fibroblast WI-38), 11.4 µM; with WI-38 cell line (normal human fetal lung fibroblast WI-38), 11.4 ± 0.37 µM. Moreover, the Toxicity % with MCF7 cell line (MCF7, 0.0487 µMol) was 48.12%; in the data set with MCF7 cell line (MCF7, 0.0975 µMol) it was 52.667%; in the data set with MCF7 cell line (MCF7, 0.195 µMol), 56.34%; in the data set on MCF7 cell line (MCF7, 0.391 µMol) it was 62.87%; in the data set with MCF7 cell line (MCF7, 0.781 µMol) it was 73.56%; with MCF7 cell line (MCF7, 1.562 µMol), 80.23%. Also, the Toxicity % in the data set on MCF7 cell line (MCF7, 3.125 µMol) was 90.87%; in the data set on MCF7 cell line (MCF7, 6.25 µMol), 93.45%; in the data set on MCF7 cell line (MCF7, 12.5 µMol), 97.46%; with MCF7 cell line (MCF7, 25 µMol), 98.45%. Further, the Viability % in the data set with MCF7 cell line (MCF7, 0.0487 µMol) is 51.88%; with MCF7 cell line (MCF7, 0.0975 µMol), 47.34%; in the data set on MCF7 cell line (MCF7, 0.195 µMol), 43.66%; in the data set on MCF7 cell line (MCF7, 0.391 µMol) it was 37.13%; in the data set with MCF7 cell line (MCF7, 0.781 µMol), 26.44%; in the data set on MCF7 cell line (MCF7, 1.562 µMol), 19.77%. Also, the Viability % with MCF7 cell line (MCF7, 3.125 µMol) was 9.13%; with MCF7 cell line (MCF7, 6.25 µMol), 6.55%; with MCF7 cell line (MCF7, 12.5 µMol), 2.542%; with MCF7 cell line (MCF7, 25 µMol), 1.556%. In the data set on WI-38 cell line (IC50 in WI-38 / IC50 in A549), the “Selectivity index (SI)” value is 52 and 52.4. For the same molecule, the “% viability” value worked out at 84.08% with WI-38 cell line (1.55 µM), 72.52% in the data set with WI-38 cell line (3.25 µM), 52.38% in the data set on WI-38 cell line (12.5 µM) and 31.09% with WI-38 cell line (25 µM). In addition, the viability (commonly the share of living cells, or the viability signal relative to a control) at 1.55 µM in data set [1] turned out to be 84.1%. This molecule also showed a viability at 6.25 µM in data set [1] of 64.5%. The molecule further gave a viability at 12.5 µM in data set [1] of 52.4%. The same molecule returned a viability at 25 µM in data set [1] of 31.1%.

For the molecule `NC(=O)Nc1sc(-c2ccc(F)cc2)cc1C(N)=O` [TPCA-1, reference compound], the “%inh” value at IKB kinase B (conc 0.01 (log -2)) is 32.5%; on IKB kinase B (conc 0.1 (log -1)), 53.6%; at IKB kinase B (conc 1 (log 0)), 71.3%; on IKB kinase B (conc 10 (log 1)), 88.6%; on IKB kinase B (conc 100 (log 2)) it was 95.2%.
